One experiment has as its system A. flavus ATCC 204304. As to the kind of experiment: Broth microdilution antifungal susceptibility, NCCLS M38-A. The note with it: Aspergillus flavus, ATCC204304, read-out: MIC0 A. flavus ATCC 204304. In kind it is cell-based, Aspergillus flavus. Background: Broth dilution looks for growth in wells or tubes with falling amounts of substance.
A further experiment relates to A. fumigatus ATCC 204305. The experiment is described as above. As to conditions: Aspergillus fumigatus, ATCC204305, read-out: MIC0 A. fumigatus ATCC 204305. In kind it is cell-based, Aspergillus fumigatus.
A further experiment relates to Blastomyces dermatitidis. Described as above. Type of experiment: cell-based. The note with it: Blastomyces dermatitidis.
In a further experiment the test system is Fusarium solani. The description is as above. In kind it is cell-based. The note with it: Fusarium solani, read-out: MIC F. solani 96-1.
For a further experiment, the system named is S. apiospermum. The experiment is described as above. In kind it is cell-based, Scedosporium apiospermum. The note with it: Scedosporium apiospermum.
In another experiment the test system is Candida parapsilosis. As to the kind of experiment: microbe, parasite or virus in culture. As to conditions: Lodderomyces parapsilosis, read-out: MIC0 C. parapsilosis 92019.
In a further experiment the test system is Cryptococcus neoformans. As to the kind of experiment: Broth microdilution antifungal susceptibility, NCCLS M38-A. The note with it: Cryptococcus neoformans.
The next experiment concerns Candida albicans. The note with it: Candida albicans, read-out: MIC0 C. albicans 90028.
Another experiment concerns Candida krusei. As to conditions: Pichia kudriavzevii, read-out: MIC0 C. krusei 6258.

Converted amounts (≈) assume the structure as drawn. Like-named read-outs stand apart in the source and are kept apart here.

For the compound `CCC(C)n1ncn(-c2ccc(N3CCN(c4ccc(OCC5COC(Cn6cncn6)(c6ccc(Cl)cc6Cl)O5)cc4)CC3)cc2)c1=O` (centres unmarked) [Itraconazole, reference compound], the MIC with A. flavus ATCC 204304 came to 0.47 µg/mL (≈ 0.666 µM); in the experiment on A. fumigatus ATCC 204305, 0.58 µg/mL (≈ 0.822 µM); with Blastomyces dermatitidis (read-out: MIC0 Blastomyces dermatitidis 04-2167) it was 0.03 µg/mL (≈ 0.0425 µM); in the experiment with Blastomyces dermatitidis (read-out: MIC0 Blastomyces dermatitidis 04-2508) it was 0.03 µg/mL (≈ 0.0425 µM); in the experiment on Blastomyces dermatitidis (read-out: MIC0 Blastomyces dermatitidis 04-2915), 0.06 µg/mL (≈ 0.085 µM); in the experiment on Blastomyces dermatitidis (read-out: MIC0 Blastomyces dermatitidis 05-106), 0.06 µg/mL (≈ 0.085 µM). Further, the MIC was 0.06 µg/mL (≈ 0.085 µM) with Blastomyces dermatitidis (read-out: MIC0 Blastomyces dermatitidis 05-186); 0.03 µg/mL (≈ 0.0425 µM) in the experiment on Blastomyces dermatitidis (read-out: MIC0 Blastomyces dermatitidis 05-1391); at most 0.015 µg/mL with Blastomyces dermatitidis (read-out: MIC0 Blastomyces dermatitidis 05-1707); at most 0.015 µg/mL with Blastomyces dermatitidis (read-out: MIC0 Blastomyces dermatitidis 05-1820); 0.06 µg/mL (≈ 0.085 µM) in the experiment with Blastomyces dermatitidis (read-out: MIC0 Blastomyces dermatitidis 05-1829); at most 0.015 µg/mL with Blastomyces dermatitidis (read-out: MIC0 Blastomyces dermatitidis 05-2020). Also, the MIC is at most 0.015 µg/mL in the experiment with Blastomyces dermatitidis (read-out: MIC0 Blastomyces dermatitidis R-3529); at most 0.015 µg/mL in the experiment with Blastomyces dermatitidis (read-out: MIC0 Blastomyces dermatitidis R-35629); above 4 µg/mL in the experiment with Fusarium solani; 1 to 4 µg/mL (≈ 1.42 to 5.67 µM) with S. apiospermum (read-out: MIC S. apiospermum 98-38); 1 to 2 µg/mL (≈ 1.42 to 2.83 µM) in the experiment with S. apiospermum (read-out: MIC S. apiospermum 98-89); 0.25 µg/mL (≈ 0.354 µM) in the experiment on Candida parapsilosis. Moreover, the MIC in the experiment on Cryptococcus neoformans (read-out: MIC C. neoformans 97-14) turned out to be 0.125 µg/mL (≈ 0.177 µM); with Cryptococcus neoformans (read-out: MIC C. neoformans 11239), 0.031 µg/mL (≈ 0.0439 µM); with Cryptococcus neoformans (read-out: MIC C. neoformans 11240), 0.313 µg/mL (≈ 0.444 µM); with Candida albicans, 0.25 µg/mL (≈ 0.354 µM); in the experiment with Candida krusei, 0.25 µg/mL (≈ 0.354 µM).
